Data published in patent US20090176711A1, “INHIBITORS OF AMYLOID PRECURSOR PROTEIN PROCESSING” (priority 2008, published 2009).
Entries after “also recorded” stand apart in the source; their conditions may differ. Non-standard residues stand in square brackets, D forms with d. No end group written: not given here. *: point of attachment. Biotin = O=C1N[C@H]2[C@H](CS[C@H]2CCCCC(=O)*)N1; Dnp = O=[N+]([O-])c1ccc(*)c([N+](=O)[O-])c1; Mca = COc1ccc2c(CC(=O)*)cc(=O)oc2c1; Ahx = NCCCCCC(=O)O

Columns and labels:
[1] = system: cleavage of Substrate M by β-secretase; assay: Inhibition of cleavage of Substrate M by β-secretase by complementary and deletion peptides (Examples 1, 5, 6; assay format not stated); format: biochemical; details: for inhibition of cleavage of Substrate M by β-secretase: FIG. 4; for inhibitory activity of deletion peptides on cleavage of Substrate M: 10 inhibitor/substrate ratio, Substrate M 50 μM; for concentration dependent inhibitory activity, activity group: various concentrations, Substrate M (FIG. 8)
Experimental: So far we have focused on c-Sub M peptide. Serial deletions were made from N-terminus or C-terminus of c-Sub M (FIG. 5), and we investigated effect of the deletions on the cleavage of Substrate M. The optimum peptide/substrate ratio for inhibition on the cleavage of substrate was determined by observing the inhibition percentage at various peptide/substrate ratios (FIG. 4). Subsequently, the inhibitory activity of the deletion peptides were tested at 10 inhibitor/substrate ratio and the concentration of the Substrate M was 50 μM. Deletion of the first two amino acids from the N-terminus had little effect on the activity and deletion of five amino acids from the C-terminus of c-Sub M had little effect on the inhibitory activity (FIG. 6). Further deleted peptides were tested for inhibitory activity on the cleavage of Substrate M (FIG. 7).
The above-mentioned peptides that have inhibitory activity were tested at various concentrations for their inhibitory activities on their mutant substrate Substrate M (FIG. 8).

[2] = target: T1, Substrate W (Sub W, SEVKMDAEFR; β-secretase cleavage site of wild type APP) (Homo sapiens, UniProt P05067); assay: Binding of biotin-labeled Substrate W to immobilized complementary (HC) peptides; details: complementary peptide immobilized, biotin-labeled Substrate W
T1 construct: […]; purchased Peptron, Inc; host or cells: chemical synthesis
Experimental: (§1) Complementary peptides (0.2, 2, 20, and 200 μM) were dissolved in phosphate buffered saline (PBS) (pH 7.4) and fixed to microtiter wells for 5 hr at 37° C. The wells were blocked with blocking buffer (3% BSA/PBS) for 1 hr at 37° C. Either N-terminally biotinylated Substrate W or M (20 μM) in blocking buffer was added and incubated for overnight at 4° C. Streptavidin-horseradish peroxidase in blocking buffer was added to detect resulting bound substrates. The plate was incubated for 2 hr at room temperature (RT), followed by addition of 3,3′,5,5′-tetramethyl-benzidine (TMB) as substrate for horseradish peroxidase for color reaction.
In particular, for Substrate W, complementary peptides (200 μM) dissolved in phosphate buffered saline (PBS) (pH 7.4) were chemically coupled to Reacti-Bind Maleic Anhydride Activated Polystyrene wells (Pierce Biotechnology, Inc.) for overnight at room temperature (RT). Remaining active sites of the plate were inactivated by adding ethanolamine (1 M) for 1 hr at RT. The wells were blocked with blocking buffer (3% BSA/PBS) for 1 hr at RT. N-terminally biotinylated Substrate W (20 μM) in blocking buffer was added and incubated for 3 hr at RT. Streptavidin-horseradish peroxidase in blocking buffer was added to detect resulting bound substrates. The plate was incubated for 2 hr at room temperature (RT), followed by addition of 3,3′,5,5′-tetramethyl-benzidine (TMB) as substrate for horseradish peroxidase for color reaction.
(§2) Reacti-Bind™ maleic anhydride-activated polystyrene plate (Pierce, IL, USA) was coated with 50 μl of HC peptide (200 μM in distilled water) by chemical coupling for 3 h at room temperature (RT) and washed three times with phosphate buffered saline (PBS) containing 0.05% tween 20 (PBST). The plate was blocked with blocking buffer (0.5% gelatin in PBS) for 1 h at RT. After discarding blocking buffer, biotinylated BACE1 substrates (200 μM) in blocking buffer was applied on the plate and incubated for 2.5 h at RT. Each well was washed three times with PBST. The bound biotinylated BACE1 substrates were detected by incubation with streptavidin-horseradish peroxidase (Str-HRP, 125 mU/ml in blocking buffer) for 2 h at RT. Color reaction was carried out with 50 μl of 3,3′,5,5′-Tetramethylbenzidine Liquid Substrate (Sigma-Aldrich, MO, USA). After stopping the reaction by addition of an equal volume of 1 N HCl, absorbance at 450 nm was read in an automated ELISA reader (EL 312e, Bio-Tek Instruments, VT, USA). All assays were carried out in duplicate.

[3] = system: cleavage of F-Substrate M (f-Sub M) by rhBACE1; assay: Fluorometric (FRET) assay for cleavage of F-Substrate M by rhBACE; format: biochemical, human; details: for inhibitory activity for cleavage of f-Sub M by rhBACE1: f-Sub M 10 μM
Text: This assay system utilizes fluorescence resonance energy transfer (FRET) technology. Substrate M was synthesized with two fluorophores, a fluorescent donor and a proprietary quenching acceptor (purchased from a commercial source, R&D Systems). […] Upon cleavage of substrate by β-secretase, the fluorophore is separated from the quenching group, restoring the full fluorescence yield of donor.
Substrate labeled with fluorophores will be called F-Substrate M (R&D Systems). Recombinant human β-secretase will be called rhBACE (recombinant human β-site APP cleavage enzyme) (purchased from R&D systems).
F-Substrate M (20 μM) was preincubated with varying concentrations of complementary peptides in assay buffer (0.1 M NaOAc, pH 4.0) for 1 hr at RT. rhBACE (70 nM) in assay buffer was added. Cleavage by rhBACE was detected by reading emitted fluorescence level.
In this assay system, fluorescence resonance energy transfer (FRET) technology was utilized. Swedish mutant APP substrate (f-Sub M) with a fluorescent donor and a proprietary quenching acceptor (7-methoxycoumarin-4-acetyl-SEVNLDAEFRK(Dnp)-RR-NH2) was purchased from R&D systems, Inc (MN, USA). […] Upon cleavage of substrate by rhBACE1 (R&D Systems, Inc., MN, USA), the fluorescence donor is separated from the quenching group, restoring the full fluorescence yield of the donor. f-Sub M (10 μM) was pre-incubated with HC peptide in assay buffer (0.1 M NaOAc, pH 4.0) for 2 h at RT. After pre-incubation, substrate and HC peptide mixture in assay buffer was transferred to FluoroNunc™ 96 well white plate (Nunc, Roskilde, Denmark), and rhBACE1 (70 nM) was added. Time-dependent emission of fluorescence (excitation at 320 nm, emission at 405 nm) was monitored in a Molecular Devices SpectraMax Gemini EM fluorescence reader (CA, USA) for 1 h at 37° C. All assays were carried out in duplicate.

[4] = system: Substrate M (Sub M, SEVNLDAEFR; β-secretase cleavage site of APPsw); assay: Binding of biotin-labeled Substrate M to immobilized complementary (HC) peptides; details: for binding activity for Sub M: HC peptides chemically coupled to plate, bio-Sub M
Experimental: as §1, §2

[5] = system: APP processing in HEK293-APP cells; assay: APP inhibitor activity on HEK293-APP cells (βCTF Western blot); format: cell-based, human; details: γ-secretase inhibitor and cholesterol added
Experimental: In the neuronal cells of the brain, APP is processed by α-secretase or β-secretase. To investigate the effects of the inhibitors on the cell, a cell based assay system was developed as described in FIG. 10. C-terminal fragment of APP remaining on the cell membrane was detected by Western blot. The resulting C-terminal fragments, αCTF or βCTF are further processed by γ-secretase. However, if the cells are treated with the γ-secretase inhibitor, this processing is blocked. As a result, αCTF or βCTF accumulate in the cell. If β-secretase inhibitor or APP inhibitor is added, this processing is blocked and βCTF disappears.
In addition, γ-secretase inhibitor and cholesterol were added to the cells to increase βCTF level. Commercially available peptide-based β-secretase inhibitor was included as control (Lane 6, FIG. 11). To detect the N-terminal fragment of β-amyloid which is a product of APP processing, 6E10 antibody was employed. […] Recently, it has been reported that the commercially available peptide-based inhibitor had to be linked to an oligoarginine transporter peptide to have inhibitory activity against cells. Therefore, mimetic approach is adopted to produce cell permeable analogs. (Chang et al. J. Neurochemistry 2004; 89:1409-1416).
After confirming the ability of the oligo-arginine coupled APP inhibitors to enter the cells, the inhibitors were applied to HEK293-APP cells overexpressing APP to test their inhibitory activities on APP processing. […] This inhibitor started to show significant inhibitory activity beginning from 0.1 μM (lower panel).

[6] = target: T2, f-Sub M (7-methoxycoumarin-4-acetyl-SEVNLDAEFRK(Dnp)-RR-NH2); assay: cell-based or functional assay
T2 peptide: Mca-SEVNLDAEFRK(Dnp)RR-NH2

[7] = target: T3, N-terminally biotinylated Substrate W; assay: plate assay: HC peptide chemically coupled to wells, bio-Sub W, streptavidin-HRP (FIG. 27)
T3 construct: also called bio-Sub W; Sub W
T3 peptide: Biotin-SEVKMDAEFR
Experimental: as §2
Thereafter, it was investigated if the c-Sub M and the deletions series bind to wild type Sub W. The results will give us important information on possibility of inhibition of wild type of APP cleavage in cells by the HC peptides derived from Sub M in view of the poor cleavage of Sub W by rhBACE1 in vitro. […] Thus, there is possibility that the HC peptides for Sub M (c-Sub M series) or its peptidomimetics will inhibit the cleavage of wild type APP by BACE1 in cells.

[8] = target: T4, Substrate M (non-labeled); assay: cell-based or functional assay
T4 peptide: SEVNLDAEFR

Sub-ST6Ga11 = target: T5, Sub-ST6Ga11; assay: cell-based or functional assay
T5 peptide: DYEALTLQAKEFQMPKSQE

Molecule: RLHFYLRLKA [Sub W-c]
- inhibition of cleavage of Substrate M by β-secretase [1]: do not inhibit cleavage
- binding to Substrate W [2]: do not bind

Molecule: CIQIHF (also: cyclic, mode of cyclisation not given here) [c-Sub M ΔN3C1]
- inhibitory activity of deletion peptides on cleavage of Substrate M [1]: considerable inhibitory activity
- concentration dependent inhibitory activity, activity group [1]: less activity
- inhibitory activity for cleavage of f-Sub M by rhBACE1 ([3]; N-terminal deletions of c-Sub M ΔC1, HC peptide 0.5 mM): maintains much of the original activity of c-Sub M; also recorded: without sacrificing the inhibitory activity too much
- inhibitory activity relative to c-Sub M ΔN1C1 ([3]; substrate concentration 10 μM): about one tenth

Molecule: SEFC (also: cyclic, mode of cyclisation not given here) [c-Sub MΔC6]
- absorbance in binding test ([4]; substrate not specified): high absorbance
- inhibitory activity on APP processing (βCTF) [5]: none of the inhibitors tested showed inhibitory activity

Molecule: CIQI [C-Sub MΔN3C3]
- inhibitory activity of deletion peptides on cleavage of Substrate M [1]: considerable inhibitory activity
- concentration dependent inhibitory activity, activity group [1]: medium activity

Molecule: SEFCI (also: cyclic, mode of cyclisation not given here) [c-SubM ΔC5]
- concentration dependent inhibitory activity, activity group [1]: medium activity

Molecule: SEFCIQIHF [c-Sub M ΔC1]
- binding activity for Sub M [4]: relatively high binding activity

Molecule: RLHLDLRLKA [Sub M-c]
- inhibition of cleavage of Substrate M by β-secretase [1]: do not inhibit cleavage
- binding to Substrate M ([4]; complementary peptide immobilized, biotin-labeled Substrate M): do not bind

Molecule: SEFCIQI (also: cyclic, mode of cyclisation not given here) [c-SubM ΔC3]
- concentration dependent inhibitory activity, activity group [1]: most active group

Molecule: SEFCIHLHFR (also: cyclic, mode of cyclisation not given here) [c-Sub W]
- inhibition of cleavage of Substrate M by β-secretase [1]: inhibit cleavage
- concentration dependent inhibitory activity, activity group [1]: medium activity
- inhibitory activity for cleavage of f-Sub M by rhBACE1 ([3]; HC peptide 1 mM): higher inhibitory activity
- binding activity for Sub M [4]: weak but significant binding
- binding to Substrate W [2]: bind

Molecule: SEFCIQI-NH2 [c-Sub M ΔC3]
- inhibitory activity for the cleavage of f-Sub M by rhBACE1 (FRET; HC peptide 1 mM, f-Sub M 10 µM) [6]: > 90%

Molecule: SEFCI-NH2 [c-Sub M ΔC5]
- inhibitory activity for the cleavage of f-Sub M by rhBACE1 (FRET; HC peptide 1 mM, f-Sub M 10 µM) [6]: > 90%

B1: 6-aminohexanoic acid-c-Sub M ΔN3C1 (peptide)
peptide: [Ahx]CIQIHF-NH2
modifications: N-terminus assumed
SMILES: CC[C@H](C)[C@H](NC(=O)[C@H](CCC(N)=O)NC(=O)[C@@H](NC(=O)[C@H](CS)NC(=O)CCCCCN)[C@@H](C)CC)C(=O)N[C@@H](Cc1c[nH]cn1)C(=O)N[C@@H](Cc1ccccc1)C(N)=O
- in vitro inhibitory activity on cleavage of f-Sub M by rhBACE1 relative to c-Sub M ΔN3C1 (FRET) [6]: ~0.5 fold of c-Sub M ΔN3C1

B2: c-Sub M ΔN1C1 (peptide)
peptide: EFCIQIHF-NH2
notes: also called one amino acid deletion from N-terminal of c-Sub M ΔC1
- fold binding to Sub W relative to c-Sub W [7]: 2.5 fold
- inhibition of the cleavage of Sub M by rhBACE1 (HPLC), inhibitor/substrate ratio 20 [8]: 100%
- inhibition of the cleavage of Sub M by rhBACE1 (HPLC), up to 10 inhibitor/substrate ratio [8]: 60%
- inhibition of the cleavage of Sub-ST6Ga11 by rhBACE1 (HPLC), inhibitor/substrate ratio 20 (Sub-ST6Ga11): 40%
- inhibition of the cleavage of Sub-ST6Ga11 by rhBACE1 (HPLC), up to 10 inhibitor/substrate ratio (Sub-ST6Ga11): ~10%
- IC50 of inhibition of f-Sub M (10 µM) cleavage by rhBACE1 (FRET) [6]: 15 µM

Molecule: CIQIHF-NH2 (also called c-Sub M ΔC1N3; c-Sub ΔN3C1) [c-Sub M ΔN3C1]
- binding result [7]: binds
- inhibitory activity relative to c-Sub M ΔN1C1, f-Sub M (10 µM) cleavage by rhBACE1 (FRET) [6]: ~0.1 fold of c-Sub M ΔN1C1

Molecule: SEFCIQIH-NH2 [c-Sub M ΔC2]
- inhibitory activity for the cleavage of f-Sub M by rhBACE1 (FRET; HC peptide 1 mM, f-Sub M 10 µM) [6]: 44%

Molecule: FCIQIHF-NH2 (also called FCIQIHF) [c-Sub M ΔN2C1]
- binding result [7]: binds
- percent of Sub M cleavage by β-secretase blocked (HPLC), 25-fold inhibitor [8]: ~60%
- percent of ST6Ga11 peptide cleavage by β-secretase blocked (HPLC), 25-fold inhibitor (Sub-ST6Ga11): 25%

Molecule: SEFCIQ-NH2 [c-Sub M ΔC4]
- inhibitory activity for the cleavage of f-Sub M by rhBACE1 (FRET; HC peptide 1 mM, f-Sub M 10 µM) [6]: > 90%
